Patent US9475805B2, “Tricyclic compound” (Kyowa Hakko Kirin Co., Ltd., priority 2008, dated 2016)
pEC50: −log10 of the molar value.

Biological target: T1, PPAR γ (Homo sapiens, UniProt P37231)
T1 construct: expressed in transfected cells; host or cells: HEK293EBNA
T1 sequence (P37231 174-475 isoform P37231-2): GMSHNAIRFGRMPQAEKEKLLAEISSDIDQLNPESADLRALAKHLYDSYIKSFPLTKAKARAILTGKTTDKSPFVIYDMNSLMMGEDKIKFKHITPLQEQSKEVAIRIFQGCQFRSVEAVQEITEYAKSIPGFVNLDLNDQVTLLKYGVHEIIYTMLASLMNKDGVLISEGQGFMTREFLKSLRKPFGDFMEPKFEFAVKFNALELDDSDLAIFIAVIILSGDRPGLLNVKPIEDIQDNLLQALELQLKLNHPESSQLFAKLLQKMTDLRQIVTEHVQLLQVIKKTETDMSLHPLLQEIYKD
Test: PPAR γ activation action based on transactivation assay of PPAR γ by transient gene transfer (GAL4-PPAR γ chimeric receptor, luciferase reporter, HEK293EBNA cells)
Type: cell-based
Conditions: concentration showing 50% of the compound's own efficacy (maximum activity rate relative to pioglitazone 10 μmol/L = 100%), 24 hr
Procedure: The agonist activity of compound (I) to PPAR γ was determined by a transactivation assay method using a chimeric nuclear receptor of a DNA binding region of a yeast transcription factor GAL4 and a PPAR γ ligand binding region. Specifically, the PPAR γ agonist activity of compound (I) was evaluated by the following method based on the method of Lehmann et al. (J Biol Chem., 1995, vol. 270, page 12953).
HEK293EBNA cells cultured in Dulbecco's Modified Eagle medium (Invitrogen) containing 10 v/v % fetal calf serum (Invitrogen) were used. 30 mL of the above-mentioned cells (density: 1×10^5 cells/mL) were inoculated in a […] (Iwaki Glass), and cultured overnight. Using SuperFect Transfection Reagent (QIAGEN), a plasmid expressing a GAL4-PPAR γ chimeric nuclear receptor fusing 174-475 amino acids, which are human PPAR γ ligand binding region, and 1-147 amino acids, which are GAL4 DNA binding region, and a reporter plasmid expressing a GAL4 responsive luciferase were transiently introduced into the cells at a proportion of 4:1. After 5 hr from transfection, the cells were detached from the culture dish, and the detached cells (density: 2×10^4 cells/mL) were inoculated by 100 μL in each well of a 96 well white plate (SUMITOMO BAKELITE), and cultured overnight. The medium was removed, compound (I) diluted in various concentrations with serum-free Dulbecco's Modified Eagle medium was added by 100 μL, and the mixture was reacted under a 5% carbon dioxide gas stream (5% CO2) at 37° C. for 24 hr. On the other hand, as a positive control, 10 μmol/L of pioglitazone (100 μL) was added, and the mixture was reacted under a 5% carbon dioxide gas stream (5% CO2) at 37° C. for 24 hr. As a substrate of luciferase, 100 μL of Steady-Glo (Promega) was added to each well and the mixture was thoroughly stirred. Immediately thereafter, the chemical luminescence due to luciferase was measured using TopCount NTX (Packard).
The agonist activity (activity rate (%)) of compound (I) to PPAR γ was calculated according to the following formula, as a relative activity when the agonist activity on addition of pioglitazone (10 μmol/L) was 100%.

SMILES	pEC50
CCCc1nc2ccccc2n1Cc1ccc2c(c1)CCc1ccccc1/C2=C\c1n[nH]c(=O)o1 [Compound 7, (E)-2-(2-Propylbenzimidazol-1-yl)methyl-5-(5-oxo-4,5-dihydro-1,3,4-oxadiazol-2-yl)methylene-10,11-dihydro-5H-dibenzo[a,d]cycloheptene]	6.10
CCc1nc2c(C)cc(C)nc2n1Cc1ccc2c(c1)CCc1ccccc1/C2=C\c1noc(=S)[nH]1 [Compound 8, (E)-2-(2-Ethyl-5,7-dimethyl-3H-imidazo[4,5-b]pyridin-3-yl)methyl-5-(5-thioxo-4,5-dihydro-1,2,4-oxadiazol-3-yl)methylene-10,11-dihydro-5H-dibenzo[a,d]cycloheptene]	6.76
CCCc1nc2c(C)cccc2n1Cc1ccc2c(c1)CCc1ccccc1/C2=C(\C)c1nnn[nH]1 [Compound 17, (Z)-2-(4-Methyl-2-propylbenzimidazol-1-yl)methyl-5-[1-(1H-tetrazol-5-yl)ethylidene]-10,11-dihydro-5H-dibenzo[a,d]cycloheptene]	7.52
CCc1nc2c(C)cc(-c3ccccc3)cc2n1Cc1ccc2c(c1)CCc1ccccc1/C2=C\C#N [Compound 50, (E)-[2-(2-Ethyl-4-methyl-6-phenylbenzimidazol-1-yl)methyl-10,11-dihydro-5H-dibenzo[a,d]cyclohepten-5-ylidene]acetonitrile]	6.45
Cc1cc(-c2ccccc2)cc2c1nc(C)n2Cc1ccc2c(c1)CCc1ccccc1/C2=C\c1nnn[nH]1 [Compound 54, (E)-2-(2,4-Methyl-6-phenylbenzimidazol-1-yl)methyl-5-(1H-tetrazol-5-yl)methylene-10,11-dihydro-5H-dibenzo[a,d]cycloheptene]	7.27
Cc1cc(-c2ccccc2)cc2c1nc(C)n2Cc1ccc2c(c1)CCc1ccccc1/C2=C\C(=O)O [Compound 55, (E)-[2-(2,4-Dimethyl-6-phenylbenzimidazol-1-yl)methyl-10,11-dihydro-5H-dibenzo[a,d]cyclohepten-5-ylidene]acetic acid]	7.41
CCCc1nc2c(C)cc(-c3cccs3)cc2n1Cc1ccc2c(c1)CCc1ccccc1/C2=C\c1nnn[nH]1 [Compound 67, (E)-2-[4-Methyl-2-propyl-6-(2-thienyl)benzimidazol-1-yl]methyl-5-(1H-tetrazol-5-yl)methylene-10,11-dihydro-5H-dibenzo[a,d]cycloheptene]	6.81
CCCc1nc2c(C)cc(-c3nnco3)cc2n1Cc1ccc2c(c1)CCc1ccccc1/C2=C\c1nnn[nH]1 [Compound 70, (E)-2-[4-Methyl-6-(1,3,4-oxadiazol-2-yl)-2-propylbenzimidazol-1-yl]methyl-5-(1H-tetrazol-5-yl)methylene-10,11-dihydro-5H-dibenzo[a,d]cycloheptene]	6.81
CCCc1nc2c(C)cccc2n1C(C)c1ccc2c(c1)CCc1ccccc1/C2=C\c1noc(=O)[nH]1 (centres unmarked) [Compound 85, (E)-2-[1-(2-Propyl-4-methylbenzimidazol-1-yl)ethyl]-5-(5-oxo-4,5-dihydro-1,2,4-oxadiazol-3-yl)methylene-10,11-dihydro-5H-dibenzo[a,d]cycloheptene]	7.57
CCc1nc2c(Cl)cccc2n1C(C)c1ccc2c(c1)CCc1ccccc1/C2=C\c1noc(=O)[nH]1 (centres unmarked) [Compound 87, (E)-2-[1-(4-Chloro-2-ethylbenzimidazol-1-yl)ethyl]-5-(5-oxo-4,5-dihydro-1,2,4-oxadiazol-3-yl)methylene-10,11-dihydro-5H-dibenzo[a,d]cycloheptene]	7.22
CCCc1nc2c(C)cc(-c3ncco3)cc2n1Cc1ccc2c(c1)CCc1ccccc1/C2=C\C(=O)N(C)CC(=O)O [Compound 95, (E)-2-[N-Methyl 2-({2-[4-methyl-6-(1,3-oxazol-2-yl)-2-propylbenzimidazol-1-yl]methyl-10,11-dihydro-5H-dibenzo[a,d]cyclohepten-5-ylidene}acetamido)]acetic acid]	7.51

Other lines, results leading:

pEC50	SMILES
6.40	CCCc1nc2ccccc2n1Cc1ccc2c(c1)CCc1ccccc1/C2=C\c1noc(=O)[nH]1 [Compound 5, (E)-2-(2-Propylbenzimidazol-1-yl)methyl-5-(5-oxo-4,5-dihydro-1,2,4-oxadiazol-3-yl)methylene-10,11-dihydro-5H-dibenzo[a,d]cycloheptene]
8.19	C/C(=C1\c2ccccc2CCc2cc(Cn3c(C4CC4)nc4c(Cl)cccc43)ccc21)c1noc(=O)[nH]1 [Compound 19, (Z)-2-(4-Chloro-2-cyclopropylbenzimidazol-1-yl)methyl-5-[1-(5-oxo-4,5-dihydro-1,2,4-oxadiazol-3-yl)ethylidene]-10,11-dihydro-5H-dibenzo[a,d]cycloheptene]
7.40	CCc1nc(-c2ccccc2)cn1Cc1ccc2c(c1)COc1ccccc1/C2=C(\C)c1noc(=O)[nH]1 [Compound 21, (E)-8-(2-Ethyl-4-phenylimidazol-1-yl)methyl-11-[1-(5-oxo-4,5-dihydro-1,2,4-oxadiazol-3-yl)ethylidene]-6,11-dihydrodibenzo[b,e]oxepine]
7.77	CCc1nc2ccccc2n1Cc1ccc2c(c1)COc1ccccc1/C2=C(\C)c1noc(=O)[nH]1 [Compound 26, (E)-8-(2-Ethylbenzimidazol-1-yl)methyl-11-[1-(5-oxo-4,5-dihydro-1,2,4-oxadiazol-3-yl)ethylidene]-6,11-dihydrodibenzo[b,e]oxepine]
8.59	CCCc1nc2ccccc2n1Cc1ccc2c(c1)COc1ccccc1/C2=C(\C)c1noc(=O)[nH]1 [Compound 27, (E)-8-(2-Propylbenzimidazol-1-yl)methyl-11-[1-(5-oxo-4,5-dihydro-1,2,4-oxadiazol-3-yl)ethylidene]-6,11-dihydrodibenzo[b,e]oxepine]
8.01	COCc1nc2ccccc2n1Cc1ccc2c(c1)COc1ccccc1/C2=C(\C)c1noc(=O)[nH]1 [Compound 30, (E)-8-(2-Methoxymethylbenzimidazol-1-yl)methyl-11-[1-(5-oxo-4,5-dihydro-1,2,4-oxadiazol-3-yl)ethylidene]-6,11-dihydrodibenzo[b,e]oxepine]
7.59	C/C(=C1/c2ccc(Cn3c(Cc4ccccc4)nc4ccccc43)cc2COc2ccccc21)c1noc(=O)[nH]1 [Compound 33, (E)-8-(2-Benzylbenzimidazol-1-yl)methyl-11-[1-(5-oxo-4,5-dihydro-1,2,4-oxadiazol-3-yl)ethylidene]-6,11-dihydrodibenzo[b,e]oxepine]
8.62	CCCc1nc2c(C)cccc2n1Cc1ccc2c(c1)COc1ccccc1/C2=C(\C)c1noc(=O)[nH]1 [Compound 35, (E)-8-(2-Propyl-4-methylbenzimidazol-1-yl)methyl-11-[1-(5-oxo-4,5-dihydro-1,2,4-oxadiazol-3-yl)ethylidene]-6,11-dihydrodibenzo[b,e]oxepine]
6.48	CCc1nc2c(C)cc(C)nc2n1Cc1ccc2c(c1)OCc1ccccc1/C2=C(\C)c1noc(=O)[nH]1 [Compound 76, (Z)-3-(2-Ethyl-5,7-dimethyl-3H-imidazo[4,5-b]pyridin-3-yl)methyl-11-[1-(5-oxo-4,5-dihydro-1,2,4-oxadiazol-3-yl)ethylidene]-6,11-dihydrodibenzo[b,e]oxepine]
7.89	CCCc1nc2c(C(C)(C)O)cccc2n1Cc1ccc2c(c1)COc1ccccc1/C2=C(\C)c1noc(=O)[nH]1 [Compound 96, (E)-8-[(4-Hydroxypropan-2-yl)-2-propylbenzimidazol-1-yl]methyl-11-[1-(5-oxo-4,5-dihydro-1,2,4-oxadiazol-3-yl)ethylidene]-6,11-dihydrodibenzo[b,e]oxepine]
7.70	CCCc1nc2c(C(N)=O)cccc2n1Cc1ccc2c(c1)COc1ccccc1/C2=C(\C)c1noc(=O)[nH]1 [Compound 100, (E)-1-{11-[1-(5-Oxo-4,5-dihydro-1,2,4-oxadiazol-3-yl)ethylidene]-6,11-dihydrodibenzo[b,e]oxepin-8-yl}methyl-2-propylbenzimidazole-4-carboxamide]
7.44	CCC/C(=C1/c2ccc(Cn3c(CCC)nc4ccccc43)cc2COc2ccccc21)c1noc(=O)[nH]1 [Compound 115, (E)-11-[1-(5-Oxo-4,5-dihydro-1,2,4-oxadiazol-3-yl)butylidene]-8-(2-propylbenzimidazol-1-yl)methyl-6,11-dihydrodibenzo[b,e]oxepine]
